Data: ChEMBL document CHEMBL1146708, “4-Amino cyclohexylglycine analogues as potent dipeptidyl peptidase IV inhibitors” (Bioorg Med Chem Lett, 2004)
pIC50, pKi: −log10 of the molar value.

How the values were obtained:
[1] = Oral bioavailability in rat; type: ADME, organism-based; settings: in vivo
[2] = Plasma clearance in rats; type: ADME, organism-based; settings: rat, read-out: Clp
[3] = Half life in rats; type: ADME, organism-based; settings: rat, in vivo
[4] = target: Dipeptidyl peptidase 4 (Homo sapiens, UniProt P27487)
[5] = target: Dipeptidyl peptidase 2 (Homo sapiens, UniProt Q9UHL4); test: Inhibitory activity against quiescent cell prolyl peptidase (QPP).
[6] = Half life in dogs; type: ADME, organism-based, Canis lupus familiaris; settings: dog, in vivo
[7] = Oral bioavailability (F) in dogs; type: ADME, organism-based, Canis lupus familiaris; settings: dog, in vivo
[8] = Clearance in dogs; type: ADME, organism-based, Canis lupus familiaris; settings: dog, in vivo
[9] = species on record: Mus musculus; test: Compound (3 mpk) was tested for reduction in glucose excursion in mice by using oral glucose tolerance test (OGTT) after 1 hour; type: functional
[10] = target: Voltage-gated inwardly rectifying potassium channel KCNH2 (Homo sapiens, UniProt Q12809); test: Binding affinity for Potassium channel HERG Kv11.1
Sequence of Voltage-gated inwardly rectifying potassium channel KCNH2 (Q12809 whole entry): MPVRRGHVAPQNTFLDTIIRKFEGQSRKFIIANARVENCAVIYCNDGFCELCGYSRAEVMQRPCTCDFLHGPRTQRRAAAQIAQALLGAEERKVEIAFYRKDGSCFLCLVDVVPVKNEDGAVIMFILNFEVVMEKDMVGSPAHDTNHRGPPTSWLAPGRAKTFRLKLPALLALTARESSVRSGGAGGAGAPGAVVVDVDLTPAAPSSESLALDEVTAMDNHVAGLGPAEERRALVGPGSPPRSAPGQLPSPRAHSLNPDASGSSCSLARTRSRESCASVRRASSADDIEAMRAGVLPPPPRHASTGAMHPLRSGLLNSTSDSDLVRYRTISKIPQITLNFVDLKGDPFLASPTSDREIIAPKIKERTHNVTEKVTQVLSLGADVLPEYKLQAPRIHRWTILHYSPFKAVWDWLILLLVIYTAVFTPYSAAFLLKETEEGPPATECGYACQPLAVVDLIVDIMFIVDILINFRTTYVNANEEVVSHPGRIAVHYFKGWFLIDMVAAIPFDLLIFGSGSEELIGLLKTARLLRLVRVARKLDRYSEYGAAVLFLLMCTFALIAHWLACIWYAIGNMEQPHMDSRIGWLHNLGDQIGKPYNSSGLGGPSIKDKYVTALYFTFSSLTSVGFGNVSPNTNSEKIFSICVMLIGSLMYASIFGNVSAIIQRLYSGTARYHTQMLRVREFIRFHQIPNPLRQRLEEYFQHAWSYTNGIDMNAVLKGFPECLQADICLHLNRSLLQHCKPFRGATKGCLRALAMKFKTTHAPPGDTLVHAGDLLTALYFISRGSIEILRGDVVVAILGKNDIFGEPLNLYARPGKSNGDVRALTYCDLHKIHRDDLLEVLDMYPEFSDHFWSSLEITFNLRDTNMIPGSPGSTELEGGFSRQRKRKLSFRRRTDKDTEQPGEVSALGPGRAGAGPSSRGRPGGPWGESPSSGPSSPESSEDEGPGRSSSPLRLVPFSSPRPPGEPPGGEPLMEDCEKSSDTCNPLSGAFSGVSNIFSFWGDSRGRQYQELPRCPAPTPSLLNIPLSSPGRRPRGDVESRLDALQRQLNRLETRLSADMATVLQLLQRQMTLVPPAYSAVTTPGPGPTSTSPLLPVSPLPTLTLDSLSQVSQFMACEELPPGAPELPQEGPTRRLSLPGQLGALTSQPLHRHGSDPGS

Sequence of Dipeptidyl peptidase 4 (P27487 whole entry): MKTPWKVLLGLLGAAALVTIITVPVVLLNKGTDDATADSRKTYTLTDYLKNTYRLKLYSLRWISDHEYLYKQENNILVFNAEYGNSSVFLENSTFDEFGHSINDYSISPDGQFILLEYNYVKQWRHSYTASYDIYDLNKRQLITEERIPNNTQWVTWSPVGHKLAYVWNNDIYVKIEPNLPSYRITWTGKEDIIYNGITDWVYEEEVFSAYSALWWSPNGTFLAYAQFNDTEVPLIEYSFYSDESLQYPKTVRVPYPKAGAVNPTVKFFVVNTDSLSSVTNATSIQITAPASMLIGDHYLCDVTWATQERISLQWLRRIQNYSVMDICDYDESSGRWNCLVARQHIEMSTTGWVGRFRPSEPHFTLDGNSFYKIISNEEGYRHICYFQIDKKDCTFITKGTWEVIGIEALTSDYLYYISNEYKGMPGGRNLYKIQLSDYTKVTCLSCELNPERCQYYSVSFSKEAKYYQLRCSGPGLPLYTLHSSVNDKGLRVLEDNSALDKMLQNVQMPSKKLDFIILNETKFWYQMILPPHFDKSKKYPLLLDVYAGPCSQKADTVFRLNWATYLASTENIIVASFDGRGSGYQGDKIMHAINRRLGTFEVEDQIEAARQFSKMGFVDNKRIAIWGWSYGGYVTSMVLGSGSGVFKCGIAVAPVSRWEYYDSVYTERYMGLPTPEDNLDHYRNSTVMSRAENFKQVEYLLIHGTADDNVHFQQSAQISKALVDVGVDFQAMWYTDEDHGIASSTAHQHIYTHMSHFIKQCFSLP

Structure (SMILES) | bioavailability [1] | clearance [2] | half-life [3] | pIC50 [4] | pIC50 [5] | other results
N[C@H](C(=O)N1CCCC1)[C@H]1CC[C@H](NS(=O)(=O)c2ccc(OC(F)(F)F)cc2)CC1 | 38% | 31 mL/min/kg | 3.6 h |  |  | 
N#Cc1cccc(S(=O)(=O)N[C@H]2CC[C@H]([C@H](N)C(=O)N3CCSC3)CC2)c1 |  |  |  | 7.62 | 6.09 | 
N[C@H](C(=O)N1CCSC1)[C@H]1CC[C@H](NS(=O)(=O)c2ccc(I)cc2)CC1 |  |  |  | 7.64 | 6.55 | 
N[C@H](C(=O)N1CCCC1)[C@H]1CC[C@H](NS(=O)(=O)c2ccc(F)cc2F)CC1 | 36% | 53 mL/min/kg | 1.8 h |  |  | half-life [6]: 6 h; bioavailability [7]: 100%; clearance [8]: 14 mL/min/kg; Reduction [9]: 36%
N[C@H](C(=O)N1CCCC1)[C@H]1CC[C@H](NC(=O)OCc2ccccc2)CC1 | 52% | 28 mL/min/kg | 4 h |  |  | 
N[C@H](C(=O)N1CCSC1)[C@H]1CC[C@H](NC(=O)OCc2ccc3ccccc3c2)CC1 |  |  |  | 7.70 | 6.70 | 
CN(C)C(=O)Nc1ccc(S(=O)(=O)N[C@H]2CC[C@H]([C@H](N)C(=O)N3CCCC3)CC2)cc1 | 1% | 21 mL/min/kg | 2.4 h | 7.59 | 4.92 | 
N[C@H](C(=O)N1CCSC1)[C@H]1CC[C@H](NS(=O)(=O)c2ccc(F)c(F)c2F)CC1 |  |  |  | 7.62 | 6.02 | 
N[C@H](C(=O)N1CCSC1)[C@H]1CC[C@H](NC(=O)c2ccc3ccccc3c2)CC1 |  |  |  | 7.68 | 6.64 | 
N[C@H](C(=O)N1CCSC1)[C@H]1CC[C@H](NC(=O)OCc2cccc3ccccc23)CC1 |  |  |  | 7.77 | 6.77 | 
N[C@H](C(=O)N1CCCC1)[C@H]1CC[C@H](NS(=O)(=O)c2ccc(NS(=O)(=O)CC(F)(F)F)cc2)CC1 | 0% | 95 mL/min/kg | 0.1 h |  | 4.82 | pKi [10]: < 4.00
N[C@H](C(=O)N1CCSC1)[C@H]1CC[C@H](NC(=O)Nc2ccc(F)c(F)c2)CC1 |  |  |  | 7.46 | 6.42 | 
N[C@H](C(=O)N1CCCC1)[C@H]1CC[C@H](NC(=O)c2cccc3ccccc23)CC1 | 30% | 13 mL/min/kg | 2.3 h | 7.34 | 5.07 | pKi [10]: 4.77
N[C@H](C(=O)N1CCCC1)[C@H]1CC[C@H](NS(=O)(=O)c2ccc(F)c(F)c2F)CC1 |  |  |  | 7.01 | 5.09 | 
N[C@H](C(=O)N1CCSC1)[C@H]1CC[C@H](NC(=O)c2ccc(I)cc2)CC1 |  |  |  | 7.48 | 6.47 | 
N#Cc1ccc(NCCNCC(=O)N2CCC[C@H]2C#N)nc1 |  |  |  |  | 5.18 | 
N[C@H](C(=O)N1CCSC1)[C@H]1CC[C@H](NC(=O)Nc2ccc(OC(F)(F)F)cc2)CC1 |  |  |  | 7.26 | 6.46 | 
N[C@H](C(=O)N1CCSC1)[C@H]1CC[C@H](NC(=O)c2ccc(F)c(F)c2)CC1 | 81% | 30 mL/min/kg | 2 h |  |  | 
N[C@H](C(=O)N1CCSC1)[C@H]1CC[C@H](N)CC1 |  |  |  | 5.57 |  | 
CN(C)C(=O)Nc1ccc(S(=O)(=O)N[C@H]2CC[C@H]([C@H](N)C(=O)N3CCSC3)CC2)cc1 |  |  |  | 8.12 | 5.70 | 
N[C@H](C(=O)N1CCSC1)[C@H]1CC[C@H](NS(=O)(=O)c2ccc(OC(F)(F)F)cc2)CC1 | 85% | 21 mL/min/kg | 4.7 h |  |  | 
N[C@H](C(=O)N1CCSC1)[C@H]1CC[C@H](NC(=O)c2cccc3ccccc23)CC1 | 51% | 22 mL/min/kg | 1.2 h | 7.82 | 6.05 | pKi [10]: 4.66
N[C@H](C(=O)N1CCSC1)[C@H]1CC[C@H](NC(=O)c2ccc(Cl)c(Cl)c2)CC1 |  |  |  | 7.42 | 6.64 | 
N[C@H](C(=O)N1CCSC1)[C@H]1CC[C@H](NS(=O)(=O)c2ccc3ccccc3c2)CC1 |  |  |  | 7.74 | 6.77 | 
N[C@H](C(=O)N1CCSC1)[C@H]1CC[C@H](NC(=O)Nc2ccc(I)cc2)CC1 | 12% | 74 mL/min/kg | 2.3 h | 8.00 | 6.68 | pKi [10]: 5.72
N[C@H](C(=O)N1CCSC1)[C@H]1CC[C@H](NC(=O)OCc2ccc(Cl)c(Cl)c2)CC1 |  |  |  | 7.54 | 6.77 | 
N[C@H](C(=O)N1CCSC1)[C@H]1CC[C@H](NC(=O)c2cnc3ccccc3c2)CC1 |  |  |  | 8.05 | 6.64 | 
N[C@H](C(=O)N1CCSC1)[C@H]1CC[C@H](NC(=O)Nc2ccc(Cl)c(Cl)c2)CC1 |  |  |  | 7.77 | 6.77 | 
